Earlier results, collected in patent publication US20250009664A1, “DOSAGE FORM FOR INTRA-[…] INJECTION […] USE IN THE TREATMENT OF CRYSTAL-AND NON-CRYSTAL […] IN[…]” (priority 2021, published 2025).

Conditions: literature

Question: Which lethal dose does the source give for COc1cc2c(c(OC)c1OC)-c1ccc(OC)c(=O)cc1[C@@H](NC(C)=O)CC2 [colchicine, N-[(7S)-1,2,3,10-tetramethoxy-9-oxo-6,7-dihydro-5H-benzo[a]heptalen-7-yl]acetamide] here?
Answer: The lethal dose was 0.8 mg/kg.

Question: What about the toxicity limit of the same compound?
Answer: Its toxicity limit is 0.1 mg/kg.
